Experimental data taken from paper PMC7730263, “Function and Regulation of the Pyruvate Transporter CstA in Escherichia coli” (International Journal of Molecular Sciences, 2020).

B1: CstA (CstA-6His) (Escherichia coli K-12) (protein)
chain: MNKSGKYLVWTVLSVMGAFALGYIALNRGEQINALWIVVASVCIYLIAYRFYGLYIAKNVLAVDPTRMTPAVRHNDGLDYVPTDKKVLFGHHFAAIAGAGPLVGPVLAAQMGYLPGMIWLLAGVVLAGAVQDFMVLFVSTRRDGRSLGELVKEEMGPTAGVIALVACFMIMVIILAVLAMIVVKALTHSPWGTYTVAFTIPLALFMGIYLRYLRPGRIGEVSVIGLVFLIFAIISGGWVAESPTWAPYFDFTGVQLTWMLVGYGFVAAVLPVWLLLAPRDYLSTFLKIGTIVGLAVGILIMRPTLTMPALTKFVDGTGPVWTGNLFPFLFITIACGAVSGFHALISSGTTPKMLANEGQACFIGYGGMLMESFVAIMALVSACIIDPGVYFAMNSPMAVLAPAGTADVVASAAQVVSSWGFSITPDTLNQIASEVGEQSIISRAGGAPTLAVGMAYILHGALGGMMDVAFWYHFAILFEALFILTAVDAGTRAARFMLQDLLGVVSPGLKRTDSLPANLLATALCVLAWGYFLHQGVVDPLGGINTLWPLFGIANQMLAGMALMLCAVVLFKMKRQRYAWVALVPTAWLLICTLTAGWQKAFSPDAKVGFLAIANKFQAMIDSGNIPSQYTESQLAQLVFNNRLDAGLTIFFMVVVVVLALFSIKTALAALKDPKPTAKETPYEPMPENVEEIVAQAKGAH
notes: full-length, 701 residues, 6His tag, from plasmid pBAD24-cstA6H (uninduced) in intact E. coli MG1655 ΔbtsT ΔcstA ΔyhjX cells; inner membrane protein, TC# 2.A.114

Assays:
CstA (CstA-6His) = biological target: T1, CstA (CstA-6His) (Escherichia coli, UniProt P15078); experiment: competition with […]pyruvate uptake into intact cells, rapid filtration; format: cell-based; conditions: 1 mM competitor against 10 µM [14C]pyruvate; Tris/MES pH 7.5, 5 mM MgCl2, 15 °C; competitor for the pyruvate site
T1 construct: full-length, 701 residues, 6His tag, from plasmid pBAD24-cstA6H (uninduced) in intact E. coli MG1655 ΔbtsT ΔcstA ΔyhjX cells; inner membrane protein, TC# 2.A.114

[1] = substrate: CC(=O)C(=O)O; experiment: cells, lysate or membranes; format: cell-based, Escherichia coli; conditions: labelled compound, intact cells of 3Δ mutant with p-cstA, Tris/MES pH 7.5, 5 mM MgCl2, 15 °C, background of 3Δ mutant subtracted, proton-gradient driven

Row | Molecule | competition with [14C]pyruvate uptake into intact cells, rapid filtration (CstA (CstA-6His)) | Km [1]
1 | O=C(O)C(=O)CBr [Br-pyruvate] | Only pyruvate itself or Br-pyruvate (a synthetic analogue) were found to act as competitors. | 
2 | B1 |  | 242 µM
